Source: patent US11518760B2 (Liverpool School of Tropical Medicine, priority 2017, dated 2022)

These compounds were tested on C6/36 Aedes albopictus cell line infected with Wolbachia pipientis (Wolbachia strain wAlbB) (assay: In vitro insect cell line assay (anti-Wolbachia screen, SYTO 11 high content imaging)). Settings: 168 h; C6/36 Aedes albopictus cells infected with Wolbachia pipientis wAlbB, 7 days incubation, SYTO 11 imaging; read-out: In vitro anti-Wolbachia activity.
Assay type: cell-based
Procedure, shortened: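 SYTO 11 staining (15 min), high-content imaging and texture analysis were the read-out on day 7. Before that, C6/36 mosquito cells carrying Wolbachia strain wAlbB were incubated at 26 °C with test compound at 5 μM final, alongside DMSO-only control wells.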

`CC(C)Nc1nc(NC2(c3ccccc3Cl)CC2)c2sccc2n1` [Example 48, N^4-(1-(2-chlorophenyl)cyclopropyl)-N^2-isopropylthieno[3,2-d]pyrimidine-2,4-diamine] and `CC(C)Nc1nc(Nc2ccccc2C(F)(F)F)c2sccc2n1` [Example 59, N^2-isopropyl-N^4-(2-(trifluoromethyl)phenyl)thieno[3,2-d]pyrimidin-2,4-amine] fall in the same range of EC50: 100 to 1000 nM for the first, 100 to 1000 nM for the second.

`CC(Nc1ncnc2cc(C3CC3)sc12)c1ccccc1C(F)(F)F` (centres unmarked) [Example 99, 6-cyclopropyl-N-(1-(2-(trifluoromethyl)phenyl)ethyl)thieno[3,2-d]pyrimidin-4-amine] and `CC(Nc1ncnc2cc(C#N)sc12)c1ccccc1C(F)(F)F` (centres unmarked) [Example 102, 4-((1-(2-(trifluoromethyl)phenyl)ethyl)amino)thieno[3,2-d]pyrimidine-6-carbonitrile] fall in the same range of EC50: 1000 to 100000 nM for the first, 1000 to 100000 nM for the second.

`FC1(F)CCN(c2nc(N3CCC3c3cccnc3C(F)(F)F)c3cccnc3n2)C1` (centres unmarked) [Example 220, 2-(3,3-difluoropyrrolidin-1-yl)-4-(2-(2-(trifluoromethyl)pyridin-3-yl)azetidin-1-yl)pyrido[2,3-d]pyrimidine] and `FC1(F)CC2(CCN(c3nc(NCc4cccnc4C(F)(F)F)c4cccnc4n3)CC2)C1` [Example 252, 2-(2,2-difluoro-7-azaspiro[3.5]nonan-7-yl)-N-((2-(trifluoromethyl)pyridin-3-yl)methyl)pyrido[2,3-d]pyrimidin-4-amine] fall in the same range of EC50: 0.01 to 1 nM for the first, 0.01 to 1 nM for the second.

Compared with `FC1(F)CCN(Cc2nc(NCc3cccnc3C(F)(F)F)c3cccnc3n2)C1` [Example 230, 2-((3,3-difluoropyrrolidin-1-yl)methyl)-N-((2-(trifluoromethyl)pyridin-3-yl)methyl)pyrido[2,3-d]pyrimidin-4-amine], `FC(F)(F)c1ncccc1CNc1nc(N2CCOCC2)nc2ncccc12` [Example 192, 2-morpholino-N-((2-(trifluoromethyl)pyridin-3-yl)methyl)pyrido[2,3-d]pyrimidin-4-amine] is lower in EC50: 1000 to 100000 nM for the first, 10 to 100 nM for the second. The second is the more potent here.

`O=C1CCCN1CCCNc1ncnc2ccsc12` [Example 34, 1-(3-(thieno[3,2-d]pyrimidin-4-ylamino)propyl)pyrrolidin-2-one] and `CC(C)(C)Nc1ncnc2ccsc12` [Example 78] fall in the same range of EC50: 1000 to 100000 nM for the first, 1000 to 100000 nM for the second.

First: C[C@H]1CN(c2nc(NCc3cccnc3C(F)(F)F)c3cccnc3n2)[C@@H](C)CO1 [Example 279, 2-((2S,5S)-2,5-dimethylmorpholino)-N-((2-(trifluoromethyl)pyridin-3-yl)methyl)pyrido[2,3-d]pyrimidin-4-amine]
Second: FC(F)C1CN(c2nc(NCc3cccnc3C(F)(F)F)c3cccnc3n2)C1 [Example 274, 2-(3-(difluoromethyl)azetidin-1-yl)-N-((2-(trifluoromethyl)pyridin-3-yl)methyl)pyrido[2,3-d]pyrimidin-4-amine]
The EC50 of the first is lower: 0.01 to 1 nM for the first, 1 to 10 nM for the second.

`COc1ccc(CNc2nc(NC(C)C)nc3ccccc23)cc1` [Example 138, N^2-isopropyl-N^4-(4-methoxybenzyl)quinazoline-2,4-diamine] and `COc1cccc(CNc2nc(NC(C)C)nc3ccsc23)c1` [Example 16, N^2-isopropyl-N^4-(3-methoxybenzyl)thieno[3,2-d]pyrimidine-2,4-diamine] fall in the same range of EC50: 1000 to 100000 nM for the first, 1000 to 100000 nM for the second.

First: FC1(F)CCN(c2nc(NCc3ccccc3C(F)(F)F)c3cccnc3n2)CC1 [Example 196, 2-(4,4-difluoropiperidin-1-yl)-N-(2-(trifluoromethyl)benzyl)pyrido[2,3-d]pyrimidin-4-amine]
Second: CC(C)Nc1nc(N2CCOCC2c2ccccc2C(F)(F)F)c2cccnc2n1 (centres unmarked) [Example 187, N-isopropyl-4-(3-(2-(trifluoromethyl)phenyl)morpholino)pyrido[2,3-d]pyrimidin-2-amine]
The EC50 of the first is lower: 0.01 to 1 nM for the first, 1000 to 100000 nM for the second. The first is the more potent here.

Same assay, conditions: C6/36 Aedes albopictus cells infected with Wolbachia pipientis wAlbB, 7 days incubation, SYTO 11 imaging; read-out: In vitro anti-Wolbachia activity

For “2-((3R)-3,5-dimethylmorpholino)-N-(2-(trifluoromethyl)benzyl)pyrido[2,3-d]pyrimidin-4-amine [Example 302]”, the EC50 was under 0.01 nM.
